The subject of one assay is pERK level in H358 cells. The assay can be described thus: pERK and ERK protein content assay in H358 cells (ELISA). Particulars: Homo sapiens, NCI-H358, compound 1 μM, 24 h, pERK/ERK ratio compared with DMSO group, read-out: Inhibition rate (%) of pERK level. Format: cell-based. The method, boiled down: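 H358 cells grown one day, then treated 24 h with compound at 1 μM. pERK and ERK in lysates measured by ELISA; pERK/ERK ratio expressed as percent inhibition versus DMSO.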
Background: In an ELISA, binding on a coated surface is turned into a signal by an enzyme label.

In the next assay the test system is H358 cells. The assay is described as follows: Antiproliferative activity against H358 cells (Cell Titer Glow, ultra-low attachment plate). Format: cell-based. Particulars: Homo sapiens, NCI-H358, 72 h, 96-well ultra-low attachment plate, three days after addition of compound, Cell Titer Glow. On the procedure: 2500 H358 cells were seeded in a 96-well ultra-low attachment plate (corning, 7007). After one day of growth, a serially diluted compound (a maximum concentration of 5 μM, 5-fold dilution, a total of five doses) was added. Three days after the addition of the compound, Cell Titer Glow (Promega, G9681) was added to evaluate pellet growth, and the IC50 value was calculated.
Background: ATP-based viability assays read luminescence as a measure of living cells.

SMILES strings stand for the structures.

Consider `C=CC(=O)N1CC2(CCN(c3nc(N4CC[C@H](N5C6CCC5CC6)C4)nc4c(OCC(F)(F)F)c(-c5c(C)ccc6[nH]ncc56)c(C5CC5)cc34)CC2)C1` [Compound 302], for which the inhibition at 1 µM with pERK level in H358 cells was > 90%. The IC50 in the assay on H358 cells is < 300 nM.
Take `C=CC(=O)N1CC2(CCN(c3nc(N4CC[C@@H](N5C6CCC5CC6)C4)nc4c(OCC(F)(F)F)c(-c5c(C)ccc6[nH]ncc56)c(C5CC5)cc34)CC2)C1` [Compound 303]: the inhibition at 1 µM in the assay with pERK level in H358 cells was > 90%. Further, in the assay on H358 cells, the IC50 was < 300 nM.
Turning to `C=CC(=O)N1CC2(CCN(c3nc(N4CC5(CSC5)C4)nc4c(OCC(F)(F)F)c(-c5c(C)ccc6[nH]ncc56)c(C5CC5)cc34)CC2)C1` [Compound 304], the inhibition at 1 µM with pERK level in H358 cells is 50 to 90%. Also, the IC50 in the assay on H358 cells is 300 to 1000 nM.
Consider `C=CC(=O)N1CC2(CCN(c3nc(N4CC5(C4)C[S+]([O-])C5)nc4c(OCC(F)(F)F)c(-c5c(C)ccc6[nH]ncc56)c(C5CC5)cc34)CC2)C1` [Compound 305], for which the inhibition at 1 µM in the assay on pERK level in H358 cells was 50 to 90%. The same compound displayed an IC50 in the assay with H358 cells of 300 to 1000 nM.
For `C=CC(=O)N1CC2(CCN(c3nc(N4CC5(C4)CS(=O)(=O)C5)nc4c(OCC(F)(F)F)c(-c5c(C)ccc6[nH]ncc56)c(C5CC5)cc34)CC2)C1` [Compound 306] the same measures were > 90% and < 300 nM.
For `C=CC(=O)N1CC2(CCN(c3nc(N4CC5(CCS(=O)(=O)CC5)C4)nc4c(OCC(F)(F)F)c(-c5c(C)ccc6[nH]ncc56)c(C5CC5)cc34)CC2)C1` [Compound 307] the same measures were > 90% and < 300 nM.
For `C=CC(=O)N1CC2(CCN(c3nc(OC4CC5CCC4N5C)nc4c(OCC(F)(F)F)c(-c5c(C)ccc6[nH]ncc56)c(C5CC5)cc34)CC2)C1` (centres unmarked) [Compound 308] the same measures were > 90% and < 300 nM.
Take `C=CC(=O)N1CC2(CCN(c3nc(OC4CC5CCC4N5CCOC)nc4c(OCC(F)(F)F)c(-c5c(C)ccc6[nH]ncc56)c(C5CC5)cc34)CC2)C1` (centres unmarked) [Compound 309]: in the assay on pERK level in H358 cells, the inhibition at 1 µM is > 90%. Further, the half-maximal inhibitory concentration (IC50) with H358 cells was < 300 nM.
For `C=CC(=O)N1CC2(CCN(c3nc(OC4CCS(=O)(=O)C5(CC5)C4)nc4c(OCC(F)(F)F)c(-c5c(C)ccc6[nH]ncc56)c(C5CC5)cc34)CC2)C1` (centres unmarked) [Compound 310] the same measures were 50 to 90% and 300 to 1000 nM.
For `C=CC(=O)N1CC2(CCN(c3nc(OC4CCS(=O)(=O)C(C)(C)C4)nc4c(OCC(F)(F)F)c(-c5c(C)ccc6[nH]ncc56)c(C5CC5)cc34)CC2)C1` (centres unmarked) [Compound 311] the same measures were > 90% and < 300 nM.
For `C=CC(=O)N1CC2(CCN(c3nc(OC4CC5CCC(C4)S5(=O)=O)nc4c(OCC(F)(F)F)c(-c5c(C)ccc6[nH]ncc56)c(C5CC5)cc34)CC2)C1` (centres unmarked) [Compound 312] the same measures were > 90% and < 300 nM.
As to `C=CC(=O)N1CC2(CCN(c3nc(OC4C5CCC4CS(=O)(=O)C5)nc4c(OCC(F)(F)F)c(-c5c(C)ccc6[nH]ncc56)c(C5CC5)cc34)CC2)C1` (centres unmarked) [Compound 313], the inhibition at 1 µM in the assay on pERK level in H358 cells was > 90%. For the same compound, the IC50 in the assay with H358 cells is < 300 nM.
The matching figures for `C=CC(=O)N1CC2(CCN(c3nc(O[C@H]4C[C@@H]5C[C@H]4CS5(=O)=O)nc4c(OCC(F)(F)F)c(-c5c(C)ccc6[nH]ncc56)c(C5CC5)cc34)CC2)C1` [Compound 314]: > 90% and < 300 nM.
With `C=CC(=O)N1CC2(CCN(c3nc(O[C@@H]4C[C@@H]5C[C@H]4CS5(=O)=O)nc4c(OCC(F)(F)F)c(-c5c(C)ccc6[nH]ncc56)c(C5CC5)cc34)CC2)C1` [Compound 315], the inhibition at 1 µM in the assay with pERK level in H358 cells was > 90%. In the assay on H358 cells, the IC50 is < 300 nM.
For `C=CC(=O)N1CC2(CCN(c3nc(OC4CCS(=O)(=O)CC4C)nc4c(OCC(F)(F)F)c(-c5c(C)ccc6[nH]ncc56)c(C5CC5)cc34)CC2)C1` (centres unmarked) [Compound 316] the same measures were > 90% and < 300 nM.
For `C=CC(=O)N1CC2(CCN(c3nc(OC4C(C)CS(=O)(=O)CC4C)nc4c(OCC(F)(F)F)c(-c5c(C)ccc6[nH]ncc56)c(C5CC5)cc34)CC2)C1` (centres unmarked) [Compound 317] the same measures were > 90% and < 300 nM.
For `C=CC(=O)N1CC2(CCN(c3nc(O[C@@H]4CCS(=O)(=O)C[C@H]4N(C)C)nc4c(OCC(F)(F)F)c(-c5c(C)ccc6[nH]ncc56)c(C5CC5)cc34)CC2)C1` [Compound 318] the same measures were > 90% and < 300 nM.
Consider `C=CC(=O)N1CC2(CCN(c3nc(O[C@H]4CCS(=O)(=O)C[C@@H]4N(C)C)nc4c(OCC(F)(F)F)c(-c5c(C)ccc6[nH]ncc56)c(C5CC5)cc34)CC2)C1` [Compound 319], for which the inhibition at 1 µM in the assay on pERK level in H358 cells was > 90%. For the same compound, the IC50 with H358 cells was < 300 nM.
The matching figures for `C=CC(=O)N1CC2(CCN(c3nc(N4CC(N5CCC5)C4)nc4c(OCC(F)(F)F)c(-c5c(C)ccc6[nH]ncc56)c(C(=C)C)cc34)CC2)C1` [Compound 320]: > 90% and < 300 nM.
Turning to `C=CC(=O)N1CC2(CCN(c3nc(N4CC(N5CCCC5)C4)nc4c(OCC(F)(F)F)c(-c5c(C)ccc6[nH]ncc56)c(C(=C)C)cc34)CC2)C1` [Compound 321], the inhibition at 1 µM in the assay on pERK level in H358 cells is > 90%. Moreover, the IC50 in the assay on H358 cells was < 300 nM.
For `C=CC(=O)N1CC2(CCN(c3nc(N4CC(N5CCC5)C4)nc4c(OCC(F)(F)F)c(-c5c(C)ccc6[nH]ncc56)c(C5(C)CC5)cc34)CC2)C1` [Compound 322] the same measures were > 90% and < 300 nM.
For `C=CC(=O)N1CC2(CCN(c3nc(N4CC(N5CCCC5)C4)nc4c(OCC(F)(F)F)c(-c5c(C)ccc6[nH]ncc56)c(C5(C)CC5)cc34)CC2)C1` [Compound 323] the same measures were > 90% and < 300 nM.
For `C=CC(=O)N1CC2(CCN(c3nc(N4CC(N5CCC(C)C5)C4)nc4c(OCC(F)(F)F)c(-c5c(C)c(C)cc6[nH]ncc56)c(C5CC5)cc34)CC2)C1` (centres unmarked) [Compound 324] the same measures were > 90% and < 300 nM.
For `C=CC(=O)N1CC2(CCN(c3nc(N4CC(N5CC[C@@H](C)C5)C4)nc4c(OCC(F)(F)F)c(-c5c(C)c(C)cc6[nH]ncc56)c(C5CC5)cc34)CC2)C1` [Compound 325], in the assay on pERK level in H358 cells, the inhibition at 1 µM is > 90%. Further, the half-maximal inhibitory concentration (IC50) in the assay on H358 cells was < 300 nM.
As to `C=CC(=O)N1CC2(CCN(c3nc(N4CC(N5C6CCC5CC6)C4)nc4c(OCC(F)(F)F)c(-c5c(C)c(C)cc6[nH]ncc56)c(C5CC5)cc34)CC2)C1` [Compound 326], the inhibition at 1 µM in the assay on pERK level in H358 cells was > 90%. Further, the IC50 with H358 cells is < 300 nM.
For `C=CC(=O)N1CC2(CCN(c3nc(N4CC(N5CC[C@H](C)C5)C4)nc4c(OCC(F)(F)F)c(-c5c(C)c(F)cc6[nH]ncc56)c(C5CC5)cc34)CC2)C1` [Compound 327] the same measures were > 90% and < 300 nM.
For `C=CC(=O)N1CC2(CCN(c3nc(N4CC(N5CC[C@@H](C)C5)C4)nc4c(OCC(F)(F)F)c(-c5c(C)c(F)cc6[nH]ncc56)c(C5CC5)cc34)CC2)C1` [Compound 328] the same measures were > 90% and < 300 nM.
As to `C=CC(=O)N1CC2(CCN(c3nc(N4CC(N5C6CCC5CC6)C4)nc4c(OCC(F)(F)F)c(-c5c(C)c(F)cc6[nH]ncc56)c(C5CC5)cc34)CC2)C1` [Compound 329], in the assay on pERK level in H358 cells, the inhibition at 1 µM is > 90%. Moreover, the IC50 with H358 cells was < 300 nM.

By inhibition is commonly meant how much of the control response was suppressed. As usually defined, the IC50 is the concentration that gives 50% inhibition. High values mean weaker potency in that assay, low ones greater potency in that assay.

Values taken from patent publication US12479843B2, “Spiro ring-containing quinazoline compounds” (WIGEN BIOMEDICINE TECHNOLOGY (SHANGHAI) CO., LTD., priority 2019, dated 2025).
